Biological target: ATP-dependent translocase ABCB1 (Homo sapiens, UniProt P08183)
Assay: TP_TRANSPORTER: transepithelial transport (basal to apical) in HCT-8 cells
Assay type: functional, cell-based

Chain of ATP-dependent translocase ABCB1 (P08183 whole entry): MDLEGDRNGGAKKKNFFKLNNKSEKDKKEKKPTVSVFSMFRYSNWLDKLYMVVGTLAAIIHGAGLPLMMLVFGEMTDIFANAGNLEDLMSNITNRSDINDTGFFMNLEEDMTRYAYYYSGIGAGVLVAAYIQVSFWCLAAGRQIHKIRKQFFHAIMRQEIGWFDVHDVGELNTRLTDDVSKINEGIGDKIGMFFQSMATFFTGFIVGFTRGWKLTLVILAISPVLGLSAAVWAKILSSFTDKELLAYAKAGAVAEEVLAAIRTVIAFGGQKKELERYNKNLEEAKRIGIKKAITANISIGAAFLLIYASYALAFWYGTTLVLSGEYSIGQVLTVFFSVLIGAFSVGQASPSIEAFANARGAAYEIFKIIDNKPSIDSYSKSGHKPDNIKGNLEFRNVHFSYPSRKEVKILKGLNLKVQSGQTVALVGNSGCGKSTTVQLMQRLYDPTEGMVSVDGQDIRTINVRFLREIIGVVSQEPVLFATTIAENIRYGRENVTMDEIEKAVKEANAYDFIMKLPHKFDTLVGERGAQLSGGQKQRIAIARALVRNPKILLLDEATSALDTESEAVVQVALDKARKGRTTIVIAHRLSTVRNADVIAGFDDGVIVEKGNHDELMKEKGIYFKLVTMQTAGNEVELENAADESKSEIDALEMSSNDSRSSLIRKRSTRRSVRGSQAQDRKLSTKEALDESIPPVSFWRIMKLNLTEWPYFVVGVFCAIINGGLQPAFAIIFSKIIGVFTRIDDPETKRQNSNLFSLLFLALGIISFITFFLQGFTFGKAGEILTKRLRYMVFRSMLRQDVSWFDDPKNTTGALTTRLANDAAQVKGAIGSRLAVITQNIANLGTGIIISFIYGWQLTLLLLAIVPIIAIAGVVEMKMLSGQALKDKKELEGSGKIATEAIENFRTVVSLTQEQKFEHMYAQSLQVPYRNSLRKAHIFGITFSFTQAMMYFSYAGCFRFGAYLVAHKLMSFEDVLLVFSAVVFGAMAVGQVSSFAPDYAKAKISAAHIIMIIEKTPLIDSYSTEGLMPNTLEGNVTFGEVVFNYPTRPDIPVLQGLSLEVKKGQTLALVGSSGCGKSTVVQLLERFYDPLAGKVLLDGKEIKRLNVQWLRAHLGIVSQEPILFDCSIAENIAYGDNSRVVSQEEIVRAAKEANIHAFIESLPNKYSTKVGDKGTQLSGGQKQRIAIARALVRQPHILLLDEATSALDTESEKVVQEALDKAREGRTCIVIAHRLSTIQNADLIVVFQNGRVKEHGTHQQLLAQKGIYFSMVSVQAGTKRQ

Q: For `CO[C@H]1C[C@@H]2CC[C@@H](C)[C@@](O)(O2)C(=O)C(=O)N2CCCC[C@H]2C(=O)O[C@H]([C@H](C)C[C@@H]2CC[C@@H](O)[C@H](OC)C2)CC(=O)[C@H](C)/C=C(\C)[C@@H](O)[C@@H](OC)C(=O)[C@H](C)C[C@H](C)/C=C/C=C/C=C/1C` [SIROLIMUS], which Activity is on record?
A: Its Activity is “is not a substrate [-]”.
